ChEMBL document CHEMBL1201862, “PubChem BioAssay data set” (2004)
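Protocol summary: plate cells (96-well), add compound at 5 concentrations, incubate 48 h, interpolate endpoints linearly. Here, GI50 denotes the concentration required for 50% inhibition of growth.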 Active and inactive are the calls of the source. Rule as the data show it: active = GI50 up to about 1.1 µM and inactive = higher.

Key:
Assay in all cases: DTP human tumour cell line panel, 48 h
OVCAR-8 = test system: OVCAR-8
UO-31 = test system: UO-31
KM12 = test system: KM12
MOLT-4 = test system: MOLT-4
HOP-62 = test system: HOP-62
CCRF-CEM = test system: CCRF-CEM
HL-60 = test system: HL-60
RPMI-8226 = test system: RPMI-8226
SK-MEL-28 = test system: SK-MEL-28
M14 = test system: M14
K562 = test system: K562
IGROV-1 = test system: IGROV-1
SN12C = test system: SN12C
SK-MEL-2 = test system: SK-MEL-2
TK-10 = test system: TK-10
NCI-H226 = test system: NCI-H226
HCT-15 = test system: HCT-15
U-251 = test system: U-251

Compound | GI50 (OVCAR-8) | GI50 (UO-31) | GI50 (KM12) | GI50 (MOLT-4) | GI50 (HOP-62) | GI50 (CCRF-CEM) | GI50 (HL-60) | GI50 (RPMI-8226) | GI50 (SK-MEL-28) | GI50 (M14) | GI50 (K562) | GI50 (IGROV-1) | GI50 (SN12C) | GI50 (SK-MEL-2) | GI50 (TK-10) | GI50 (NCI-H226) | GI50 (HCT-15) [µM] | GI50 (U-251)
Cn1c2ccccc2c2cc(-c3ccccc3)c3c(c21)C(=O)c1ccccc1C3=O | 18.2 µM (inactive) | 11 µM (inactive) | 21.5 µM (inactive) | 5.04 µM (inactive) | 40.5 µM (inactive) | 5.19 µM (inactive) | 9.35 µM (inactive) | 4.67 µM (inactive) | 14.7 µM (inactive) | 14.3 µM (inactive) | 21.4 µM (inactive) | 21 µM (inactive) | 28.6 µM (inactive) | 19.5 µM (inactive) | 48.3 µM (inactive) | 22 µM (inactive) |  | 
C=C1C(=O)OC2CC3(C)C=CC(=O)C(=C)C3CC12 (stereo not given) | 1.55 µM (inactive) | 1.75 µM (inactive) | 2.08 µM (inactive) | 1.03 µM (active) | 14.7 µM (inactive) | 0.317 µM (active) | 0.769 µM (active) | 0.589 µM (active) | 1.77 µM (inactive) | 1.46 µM (inactive) | 1.71 µM (inactive) | 2.28 µM (inactive) | 1.69 µM (inactive) | 1.67 µM (inactive) | 2.15 µM (inactive) | 12.1 µM (inactive) | 1.71 | 3.79 µM (inactive)
CN(C(=O)c1ccc(Cl)cc1)C(=S)N1CCN(c2ccccn2)CC1 | > 100 µM (inactive) | > 100 µM (inactive) | > 100 µM (inactive) | > 100 µM (inactive) | > 100 µM (inactive) | > 100 µM (inactive) | > 100 µM (inactive) | > 100 µM (inactive) | > 100 µM (inactive) | > 100 µM (inactive) | > 100 µM (inactive) | > 100 µM (inactive) | > 100 µM (inactive) | > 100 µM (inactive) | > 100 µM (inactive) | 37.2 µM (inactive) | > 100 | > 100 µM (inactive)
COc1ccccc1NC(=O)CC(=O)N/N=C/c1ccc(N(CCC#N)S(=O)(=O)c2ccccc2)cc1 | > 100 µM (inactive) | > 100 µM (inactive) | > 100 µM (inactive) | > 100 µM (inactive) | > 100 µM (inactive) | > 100 µM (inactive) | > 100 µM (inactive) | > 100 µM (inactive) | > 100 µM (inactive) | > 100 µM (inactive) | > 100 µM (inactive) | > 100 µM (inactive) |  | > 100 µM (inactive) | > 100 µM (inactive) | > 100 µM (inactive) | > 100 | > 100 µM (inactive)
CCCCN(CCCC)CC(C(=O)Nc1ccc([N+](=O)[O-])cc1[N+](=O)[O-])/C(C)=N\NC(=O)c1ccncc1 (stereo not given) | > 100 µM (inactive) | > 100 µM (inactive) |  | > 100 µM (inactive) | > 100 µM (inactive) | > 100 µM (inactive) | > 100 µM (inactive) | > 100 µM (inactive) | > 100 µM (inactive) | > 100 µM (inactive) | > 100 µM (inactive) | > 100 µM (inactive) | > 100 µM (inactive) | > 100 µM (inactive) | > 100 µM (inactive) |  | > 100 | > 100 µM (inactive)
CCOP(=O)(OCC)C(C(=O)OC)C(=O)C(=O)Nc1cccc([N+](=O)[O-])c1 (stereo not given) | > 100 µM (inactive) | > 100 µM (inactive) | > 100 µM (inactive) | > 100 µM (inactive) | > 100 µM (inactive) | > 100 µM (inactive) | > 100 µM (inactive) |  | > 100 µM (inactive) | > 100 µM (inactive) | > 100 µM (inactive) | > 100 µM (inactive) | > 100 µM (inactive) | > 100 µM (inactive) | > 100 µM (inactive) | > 100 µM (inactive) | > 100 | > 100 µM (inactive)
Nc1ccn(CCNCCn2cnc3nc(N)[nH]c(=O)c32)c(=O)n1 | > 100 µM (inactive) | > 100 µM (inactive) | > 100 µM (inactive) |  | > 100 µM (inactive) |  | > 100 µM (inactive) | > 100 µM (inactive) | > 100 µM (inactive) |  | > 100 µM (inactive) | > 100 µM (inactive) | > 100 µM (inactive) | > 100 µM (inactive) | > 100 µM (inactive) | > 100 µM (inactive) | > 100 | > 100 µM (inactive)
Oc1ccc2c(O)cc(-c3ccccc3)nc2c1 | 32.7 µM (inactive) | 19.3 µM (inactive) | 22.2 µM (inactive) | 21.1 µM (inactive) | 28.2 µM (inactive) | 18.2 µM (inactive) | 21.5 µM (inactive) | 17.5 µM (inactive) | 38.3 µM (inactive) | 19.7 µM (inactive) | 19.2 µM (inactive) | 29 µM (inactive) | 24.3 µM (inactive) | 31.7 µM (inactive) | 40.7 µM (inactive) | 65.3 µM (inactive) | 15.8 | 31.3 µM (inactive)
